Assay results reported in patent US20260091015A1, “TREATING IRON DEFICIENCY WITH FERRIC CARBOXYMALTOSE” (PHARMACOSMOS HOLDING A/S, priority 2018, published 2026).

Key:
[1] = Fractional urinary phosphate excretion, spot urine, trials IDA-04/IDA-05; assay type: in vivo, human; details: FCM vs IIM
Protocol: The term “fractionary urinary excretion of phosphate (FEPi)” (sometimes abbreviated FEPO4) is a measure of how much phosphate is not re-absorbed from the pre-urine in the kidneys, i.e., how much phosphate ends up in the urine as a proportion of how much phosphate the subject has in the blood. It is calculated like this: FEPi=[PO4 (Urine)*Creatinine (Serum)]/[PO4 (Serum)*Creatinine (Urine)]*100. An FEPi of 10-20% (0.1-0.2 fraction) is usually considered to be normal; an FEPi <10% (<0.1 fraction) is usually considered to be low; and an FEPi >20% (>0.2 fraction) is usually considered to be high. Phosphate in urine is measured using the same methodology as for serum.
(§1) The trial was a randomized, open-label, comparative trial. Subjects with Iron Deficiency Anaemia (IDA) were randomized 1:1 to one treatment course of one of the following treatments: • Group A: iron isomaltoside 1000 (Monofer®, Pharmacosmos, Holbok, Denmark, termed iron isomaltoside in the following), 1000 mg at baseline • Group B: ferric carboxymaltose (Ferinject®/Injectafer®, Vifor Inc, Switzerland), 750 mg at baseline and day 7, cumulative dose: 1500 mg […]

ionized calcium = assay: Ionized calcium, ion-selective electrode, trials IDA-04/IDA-05; assay type: in vivo, human; details: IDA-04 and IDA-05 combined
From the text: The term “serum ionized calcium” as used herein refers to the level of calcium ions (Ca^2+) in blood serum as measured using the IL GEM Premier 3500 PAK cartridge. The central component is the sensor card, which provides a low volume, gas tight chamber in which the blood sample is presented to the sensors. The pH and electrolyte sensors are all based on the principle of ion-selective electrodes; that is, an electrical potential can be established across a membrane which is selectively permeable to a specific ion. The pH and electrolyte sensors are polyvinyl chloride (PVC) based ion selective electrodes, consisting of an internal Ag/AgCl reference electrode and internal salt layer. The potentials are measured against the card reference electrode. […]
The following safety laboratory assessments were analysed: • S-phosphate: inorganic phosphorous forms an ammonium phosphomolybdate complex having the formula (NH4)3[PO4](MoO3)12 with ammonium molybdate in the presence of sulfuric acid. The complex was determined photometrically in the ultraviolet region (340 nm) of the spectrum using the Roche Modular and Cobas Analyzer. • iFGF23 and cFGF23: the human intact FGF23 was measured by the 2nd generation Elisa kit manufactured by Immonotropics, Inc, San Clemente, CA. […] The human C-terminal FGF23 was measured by the Elisa kit manufactured by Immonotropics, Inc, San Clemente, CA. […]

human C-terminal FGF23 = assay: C-terminal FGF23 (cFGF23) over time, two-site ELISA, trials IDA-04/IDA-05; assay type: in vivo
Protocol: as §1
The following safety laboratory assessments were analysed: • S-phosphate: inorganic phosphorous forms an ammonium phosphomolybdate complex having the formula (NH4)3[PO4](MoO3)12 with ammonium molybdate in the presence of sulfuric acid. The complex was determined photometrically in the ultraviolet region (340 nm) of the spectrum using the Roche Modular and Cobas Analyzer. • iFGF23 and cFGF23: the human intact FGF23 was measured by the 2nd generation Elisa kit manufactured by Immonotropics, Inc, San Clemente, CA. […] The human C-terminal FGF23 was measured by the Elisa kit manufactured by Immonotropics, Inc, San Clemente, CA. […] After evaporation under nitrogen, the residue was reconstituted and analyzed using Liquid Chromatography (LC) with Tandem Mass Spectrometric detection (MS/MS). […]

Fractional urinary excretion of phosphate [1]: significantly increased
ionized calcium (ionized calcium): decrease
cFGF23 on the first administration (human C-terminal FGF23; initially high due to underlying iron deficiency anemia): dropped sharply
cFGF23 on the second administration (human C-terminal FGF23; second administration (day 7)): increased
Substance: ferric carboxymaltose [FCM]
